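Cells were grown in 96-well plates and exposed to each compound for 48 hours at five concentrations; endpoints were interpolated linearly between bracketing concentrations, or set to the highest concentration if not reached. At the TGI there is no net growth.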
How the values were obtained:
Test in all cases: NCI tumour cell line growth inhibition, 48 h
[1] = test system: SNB-19 CNS
[2] = test system: DMS 114 small cell lung
[3] = test system: UO-31 renal
[4] = test system: OVCAR-5 ovarian
[5] = test system: MALME-3M melanoma
[6] = test system: NCI-H226 lung
[7] = test system: ACHN renal
[8] = test system: DMS 273 small cell lung
[9] = test system: HOP-62 NSCLC
[10] = test system: SNB-78 CNS
[11] = test system: KM12 colon
[12] = test system: CCRF-CEM leukemia
[13] = test system: U251 CNS
[14] = test system: SF-295 CNS
[15] = test system: NCI-H460 lung
[16] = test system: HOP-92 NSCLC
[17] = test system: SN12C renal
[18] = test system: IGROV1 ovarian
[19] = test system: HT29 colon
[20] = test system: SF-539 CNS
[21] = test system: NCI-H23 lung
[22] = test system: CAKI-1 renal
[23] = test system: OVCAR-8 ovarian
[24] = test system: MOLT-4 leukemia
[25] = test system: SR leukemia
[26] = test system: SK-MEL-2 melanoma
[27] = test system: SK-MEL-5 melanoma
[28] = test system: A549 NSCLC
[29] = test system: DLD-1 colon
[30] = test system: A498 renal
[31] = test system: SK-OV-3 ovarian
[32] = test system: COLO 205 colon
[33] = test system: M19-MEL melanoma
[34] = test system: SW-620 colon
[35] = test system: HCT-116 colon
[36] = test system: NCI-H522 lung
[37] = test system: OVCAR-4 ovarian
[38] = test system: 786-0 renal
[39] = test system: EKVX NSCLC
[40] = test system: XF 498 CNS
[41] = test system: RXF 393 renal
[42] = test system: SK-MEL-28 melanoma
[43] = test system: UACC-257 melanoma
[44] = test system: K-562 leukemia
[45] = test system: HL-60(TB) leukemia
[46] = test system: KM20L2 colon
[47] = test system: SF-268 CNS
[48] = test system: HOP-18 NSCLC
[49] = test system: OVCAR-3 ovarian
[50] = test system: SNB-75 CNS
[51] = test system: M14 melanoma
[52] = test system: TK-10 renal
[53] = test system: LOX IMVI melanoma
[54] = test system: UACC-62 melanoma
[55] = test system: HCT-15 colon
[56] = test system: RPMI-8226 leukemia
[57] = test system: LXFL 529 NSCLC
[58] = test system: HCC-2998 colon

COc1ccc2c(c1)[n+]([O-])c(-c1ccc(Br)cc1)c(N)[n+]2[O-]
TGI [1]: > 100 µM
TGI [2]: 57.9 µM
TGI [3]: > 100 µM
TGI [4]: > 100 µM
TGI [5]: 60.1 µM
TGI [6]: > 100 µM
TGI [7]: > 100 µM
TGI [8]: 68.9 µM
TGI [9]: > 100 µM
TGI [10]: > 100 µM
TGI [11]: > 100 µM
TGI [12]: > 100 µM
TGI [13]: > 100 µM
TGI [14]: > 100 µM
TGI [15]: > 100 µM
TGI [16]: > 100 µM
TGI [17]: > 100 µM
TGI [18]: > 100 µM
TGI [19]: > 100 µM
TGI [20]: > 100 µM
TGI [21]: 55.3 µM
TGI [22]: > 100 µM
TGI [23]: > 100 µM
TGI [24]: > 100 µM
TGI [25]: > 100 µM
TGI [26]: > 100 µM
TGI [27]: 36.5 µM
TGI [28]: > 100 µM
TGI [29]: > 100 µM
TGI [30]: > 100 µM
TGI [31]: > 100 µM
TGI [32]: 32.9 µM
TGI [33]: > 100 µM
TGI [34]: > 100 µM
TGI [35]: > 100 µM
TGI [36]: 29.7 µM
TGI [37]: > 100 µM
TGI [38]: > 100 µM
TGI [39]: > 100 µM
TGI [40]: > 100 µM
TGI [41]: > 100 µM
TGI [42]: 71.5 µM
TGI [43]: > 100 µM
TGI [44]: > 100 µM
TGI [45]: > 100 µM
TGI [46]: > 100 µM
TGI [47]: > 100 µM
TGI [48]: > 100 µM
TGI [49]: > 100 µM
TGI [50]: > 100 µM

CC1=NN2C(c3ccc(C)cc3)=CSC2=NC(C)(C)C1
TGI [1]: > 100 µM
TGI [2]: > 100 µM
TGI [3]: > 100 µM
TGI [4]: > 100 µM
TGI [5]: > 100 µM
TGI [6]: > 100 µM
TGI [7]: > 100 µM
TGI [51]: > 100 µM
TGI [52]: > 100 µM
TGI [9]: > 100 µM
TGI [10]: > 100 µM
TGI [11]: > 100 µM
TGI [12]: > 100 µM
TGI [53]: > 100 µM
TGI [13]: > 100 µM
TGI [54]: > 100 µM
TGI [14]: > 100 µM
TGI [55]: > 100 µM
TGI [15]: > 100 µM
TGI [16]: > 100 µM
TGI [17]: > 100 µM
TGI [18]: > 100 µM
TGI [56]: > 100 µM
TGI [19]: > 100 µM
TGI [20]: > 100 µM
TGI [21]: > 100 µM
TGI [23]: > 100 µM
TGI [57]: > 100 µM
TGI [24]: > 100 µM
TGI [26]: > 100 µM
TGI [58]: > 100 µM
TGI [27]: > 100 µM
TGI [28]: > 100 µM
TGI [29]: > 100 µM
TGI [30]: > 100 µM
TGI [31]: > 100 µM
TGI [32]: > 100 µM
TGI [33]: > 100 µM
TGI [34]: > 100 µM
TGI [35]: > 100 µM
TGI [36]: > 100 µM
TGI [37]: > 100 µM
TGI [38]: > 100 µM
TGI [39]: > 100 µM
TGI [40]: > 100 µM
TGI [41]: > 100 µM
TGI [42]: > 100 µM
TGI [43]: > 100 µM
TGI [44]: > 100 µM
TGI [45]: > 100 µM
TGI [46]: > 100 µM
TGI [47]: > 100 µM
TGI [48]: > 100 µM
TGI [49]: > 100 µM
TGI [50]: > 100 µM

Source: PubChem BioAssay (NCI)
